Measured values published in patent US20120329879A1, “BETA-ADRENERGIC RECEPTOR AGONISTS AND USES THEREOF” (THE UNIVERSITY OF TENNESSEE RESEARCH FOUNDATION, priority 2010, published 2012).

How the values were obtained:
Rat Müller cells (rMC-1) = experiment: TNFalpha and cleaved caspase 3 ELISA in Müller cells cultured in high glucose; format: cell-based
Description: (§1) Human retinal endothelial cells (HREC) were purchased from Cell Systems (Kirkland, Wash.) and grown in either basal (5 mM glucose) or growth (25 mM glucose) media. Both media is supplemented with 10% FBS and antibiotics. The day prior to experiments, cells are serum-starved for 18-24 hours. Rat Müller cells (rMC-1) were grown in DMEM medium with 5 mM glucose or 25 mM glucose. Media was supplemented with 10% FBS and antibiotics. Cells were serum starved prior to all experiments for 18-24 hours.
(§2) Human retinal endothelial cells (HREC) and rat Muller cells (rMC-1) in both glucose conditions were treated with Compound 2 at doses of 10 nM, 50 nM, 100 nM, 1 μM, and 10 μM of Compound 2. Cells of each type were grown in medium containing L-glucose to control for changes in osmolarity. 10 μM isoproterenol was also used for each condition as a positive control. Müller cells were treated for 1 hour and 24 hours, while HREC were treated for 30 and 60 minutes.
(§3) Following treatment, cells were collected into lysis buffer containing protease and phosphatase inhibitors. ELISA analyses for TNFalpha, cleaved caspase 3, and PKA were done according to manufacturers instructions. Data is compared against non-treated cells and cells at the various doses. A Kruskal-Wallis test is done, with a Dunn's test for secondary analyses. […] The dose that decreases TNFalpha and caspase 3 levels also increases PKA activity.

[1] = system: Human retinal endothelial cells (HREC); experiment: TNFalpha and cleaved caspase 3 ELISA in retinal endothelial cells cultured in high glucose; format: cell-based
Description: as §1, §2, §3

[2] = Body weight, blood glucose, blood pressure and intraocular pressure in streptozotocin diabetic rats on eye drop therapy; format: in vivo, rat; conditions: rats, 50 mM topical dose of isoproterenol
Description: Male Lewis rats purchased from Charles River were used. Diabetic rats received a single injection of 60 mg/kg streptozotocin (Fisher, Pittsburgh, Pa.). […] All rats were weighed weekly and only rats with non-fasting blood glucose levels >250 mg/dl were considered diabetic. The designation of diabetic was made at the beginning of the experiments. Glucose was measured bimonthly. No insulin was administered to the rats at any time. To determine whether topical application of Compound 2 could reach the retina and elicit response, dose and time course studies were performed. For those studies, animals were made diabetic for 2 months using STZ. For 4 days, rats received a variety of doses of either Compound 2 (1 mM to 20 mM) or PBS once or twice each day. After the 4 days of eye drop treatment to both eyes, the diabetic and control animals were euthanized. […] After determining the optimal dose and time course for eye drop treatment for Compound 2, three groups of rats were used for this part of the study (control, diabetic (Diabetic), and diabetic+eye drop (Diab+2). Within 1 week of STZ-injection, 12 rats were put onto eye drop therapy. Rats on the eye drop therapy received a daily application of 4 drops of 1 mM Compound 2 to each eye. To verify that insulin levels were lost in the diabetic animals, insulin ELISA (Rat/Mouse Insulin ELISA kit, Linco, St. Charles, Mo.) was done on blood sampled from all rats at 2 months of age. Rats were sacrificed at 2 or 8 months of age. […] Analyses on the rats were done for acute changes (8 weeks of diabetes, 45 rats) and chronic changes (8 months of diabetes, 45 rats). […] Each month, all rats were tested for visual function: electroretinogram (ERG) and live retinal imaging were performed using Optical Coherence Topography (OCT). […] While the animals were asleep for ERG analyses, blood pressure and pulse were monitored to detect potential negative cardiovascular events.

retina = conditions: given systemically to rodents; cited from earlier work
[3] = Müller cells in high glucose, 50 nM, vs non-treated
[4] = REC in high glucose, 50 nM, vs non-treated
[5] = Müller cells, 10 μM isoproterenol

In the case of `COc1cc(CCNC[C@H](O)c2ccc(O)c(O)c2)cc(OC)c1OC.Cl` (single isomer, unassigned) [R-isomer of Compound 2], the “TNFalpha concentration and cleaved caspase 3: comparison of isomers” value (Rat Müller cells (rMC-1); Muller cells, 50 nM, 1 hour or 24 hours) is reported as “superior to the S-isomer of Compound 2 and racemic Compound 2” and the “TNFalpha concentration and cleaved caspase 3: comparison of isomers” value ([1]; retinal endothelial cells, 50 nM, 1 hour or 24 hours) is reported as “superior to the S-isomer of Compound 2 and racemic Compound 2”.

In the case of `COc1cc(CCNC[C@H](O)c2ccc(O)c(O)c2)cc(OC)c1OC` [Compound 3, 4-[1-hydroxy-2-(1-ethylamino-3-,4-,5-trimethoxyphenyl)ethyl]benzene-1,2-diol], the “TNFalpha levels, in words” value (Rat Müller cells (rMC-1); [3]) is reported as “significantly reduced TNFalpha within 1 hour”, the “cleaved caspase 3 levels, in words” value (Rat Müller cells (rMC-1); [3]) is reported as “reduced the cleavage of caspase 3” and the “TNFalpha levels, in words” value [1, 4] is reported as “reduced”. The “cleaved caspase 3 levels, in words” value [1, 4] was “reduced the cleavage of caspase 3”.

For `COc1cc(CCNC[C@H](O)c2cc(O)cc(O)c2)cc(OC)c1OC.Cl` [Compound 4, 5-(1-hydroxy-2-[2-(3,4,5-trimethosy-phenyl)-ethylamino]-ethyl)-benzene-1,3-diol hydrochloride], the “beta-2-adrenergic receptor activity (ELISA data)” value (Rat Müller cells (rMC-1); Muller cells, 50 nM) was “has more beta-2-adrenergic receptor activity”, the “effectiveness and speed compared with Compound 2” value (Rat Müller cells (rMC-1); Muller cells, 50 nM) was “more effective and works faster than Compound 2” and the “TNFalpha levels, in words” value (Rat Müller cells (rMC-1); [3]) was “reduce TNFalpha levels”. The “cleaved caspase 3 levels, in words” value (Rat Müller cells (rMC-1); [3]) was “reduce TNFalpha levels and the cleavage of caspase 3”, the “beta-2-adrenergic receptor activity (ELISA data)” value ([1]; REC cells, 50 nM) was “has more beta-2-adrenergic receptor activity” and the “TNFalpha levels, in words” value [1, 4] was “reduce TNFalpha levels”. The “cleaved caspase 3 levels, in words” value [1, 4] was “reduce TNFalpha levels and the cleavage of caspase 3” and the “time to activate response compared with Compound 2” value ([1]; retinal endothelial cells, 50 nM) was “does take longer to activate response”.

In the case of `CC(C)NCC(O)c1ccc(O)c(O)c1` (centres unmarked) [isoproterenol, 4-[1-hydroxy-2-(isopropylamino)ethyl]benzene-1,2-diol, reference compound], the “negative cardiovascular events (blood pressure and pulse)” value [2] is reported as “these events have not been observed”, the “concentration required for the same response (reduction of cleaved caspase 3 and TNFalpha)” value (Rat Müller cells (rMC-1); Müller cells in high glucose, compared with 50 nM Compound 2) is reported as 10 µM and the “cleaved caspase 3 levels, in words” value (Rat Müller cells (rMC-1); Müller cells in hyperglycemic conditions, isoproterenol, concentration not given) is reported as “can decrease cleaved caspase 3 levels”. For the same compound, the “time for blockade of apoptosis” value (Rat Müller cells (rMC-1); [5]) was 24 h, the “time for inhibition of TNFalpha activity” value (Rat Müller cells (rMC-1); [5]) was ≤ 1 h and the “cleaved caspase 3 levels, in words” value ([1]; REC in hyperglycemic conditions, isoproterenol, concentration not given) was “can decrease cleaved caspase 3 levels”. The “TNFalpha reduction, in words” value ([1]; retinal endothelial cells, 10 μM in vitro) was “did not significantly reduce TNFalpha”.

In the case of `CC(C)NCC(O)COc1cccc2ccccc12` (centres unmarked) [propranolol], the “electrical activity in the retina” value (retina) is given as “produced significant deficits in the electrical activity in the retina” and the “growth factors that may promote neovascularization” value (retina) is given as “activated growth factors that may promote neovascularization”.
